Source: US20240415851A1, “REMODILINS TO PREVENT OR TREAT CANCER METASTASIS, GLAUCOMA, AND HYPOXIA” (The University of Chicago, priority 2019, published 2024)
“Also recorded” adds a separate entry of the source. Read-outs that look alike come from different tables or passages of the source.

Assays:
[1] = test system: human lung-derived fibroblasts; assay: TGFβ-induced myofibroblast transformation (ACTA2, FN1 protein expression); assay type: cell-based; details: 1 ng/mL TGFβ1; 0, 1, 3, or 10 μM remodilin for 2 d; dose-dependent
Method: FIG. 1 Remodilins inhibit myofibroblast transformation (MFT). Serum deprived human lung-derived fibroblasts were treated with 1 ng/mL TGFβ1 (or not, left lane) and 0, 1, 3, or 10 μM remodilin for 2 d. Four remodilins each inhibited smooth muscle α-actin (ACTA2) or fibronectin-1 (FN1) protein expression (markers of MFT).

MDA-MB-231 cells [2] = assay: Spheroid invasion into collagen gels; assay type: cell-based, human; details: 10 µM remodilin; 48 hrs; collagen 2 mg/mL; DMEM 0.5% FBS; vs 0.1% DMSO
Method: FIG. 3 MDA-MB-231 cells were grown into spheroids, then allowed to migrate into collagen gels in DMEM containing 0.5% FBS and remodilin (10 µM remodilin 39 [top row] or remodilin 83 [bottom row]) or diluent (0.1% DMSO) for 48 hrs (representative 48 hr images shown).
(§1) Remodilins 39 and 83 each slowed the invasion of triple negative MDA-MB-231 human breast cancer cells from spheroids into a surrounding collagen gel (FIG. 3), and also slowed the serum-directed invasion MDA-MB-231-derived BM1 cells through Matrigel-coated transwells (FIG. 4). Remodilins 39 and 83 also slowed the migration of MDA-MB-231 cells in a scratch wound healing assay (FIG. 5).

[3] = test system: MDA-MB-231-derived BM1 cells; assay: 10% FBS-directed invasion through Matrigel-coated transwell membrane; assay type: cell-based, human; details: dose-dependent; n=3/condition
Excerpt: FIG. 4 Remodilins 39 and 83 inhibited 10% FBS-directed invasion migration of MDA-MB-231-derived BM1 cells through a Matrigel-coated transwell mem-brane, in a dose-dependent fashion. Mean+SEM shown; n=3/condition. **P<0.01; ***P<0.001; ****P<0.0001.
as §1

MDA-MB-231 cells [4] = assay: Scratch wound healing migration assay; assay type: cell-based, human; details: dose-dependent; 1, 3, 10 uM; n=8 wells/condition
Method: Mean+SD shown; n=8 wells/condition. P<0.0001 for 1, 3, & 10 uM remodilin 39 vs DMSO (control) by 2-way ANOVA/Dunnett's.
as §1

MDA-MB-231 cells [5] = assay: Alamar blue assay (growth inhibition, cytotoxicity); assay type: cell-based, human; details: concentrations to at least 10 uM
[6] = In vivo PK and oral bioavailability, single dose; details: mouse, plasma, wild-type mice, 10 mg/kg single dose
Method: (§2) The in vivo bioavailability, plasma half-life, Cmax, and area under the curve (AUC) were determined after administration of single 10 mg/kg doses of remodilins 39 and 83 to mice (Table 1). Selected tissue concentrations of remodilins 39 and 83 after single oral doses of 10 or 50 mg/kg (FIG. 6). The PK properties of these remodilins differ substantially.

[7] = Tissue and plasma concentrations after single oral doses; assay type: in vivo; details: mice
Method: FIG. 6 Tissue and plasma remodilin concentrations after single oral doses (filled circles 50 mg/kg; open circles-10 mg/kg). […] The greater oral bioavailability, longer half-life, and inter-tissue variation of remodilin 83 concentration are readily evident. Mean+SEM shown; n=3/condition.
as §2
(§3) PK was re-evaluated after 14 days of intraperitoneal (IP) or oral BID dosing. […] Plasma levels after single or 15 consecutive once-daily IP 10 mg/kg doses of remodilin 39 were examined (FIG. 8). The plasma concentration of 10 μM remodilin 39 corresponds to 5314 ng/mL.

[8] = Tissue concentrations after 14 d BID dosing (IP or PO); assay type: in vivo; details: for concentration at 14 days: liver, lung, intraperitoneal
Method: Mean+SEM shown; n=3/condition. Dotted lines show concentration corresponding to 10 μM.
as §3
(§4) In the experiments corresponding to FIG. 7, remodilin 83 was dissolved in 20% Solutol in PBS.

[9] = Lipophilicity and dissolution in vehicles; assay type: physicochemical
Method: as §4

HIF1α [10] = assay: TGFβ-induced HIF1α accumulation in fibroblasts; assay type: cell-based, human; details: 48 hrs TGFβ treatment
Excerpt: (§5) FIG. 12A-12B Remodilins inhibit accumulation of hypoxia-inducible factor-1 alpha (HIF1α) protein. FIG. 12A Effect of remodilin 83 on TGFβ-induced phosphorylation of AKT and ERK1/2 and TGFβ-induced HIF1α accumulation in human fibroblasts. FIG. 12B Both remodilins 39 and 83 inhibited HIF1α accumulation in HEK293 cells exposed to 6 hrs of hypoxia (1% 02).
(§6) The influence of remodilin 83 on HIF-1α accumulation in TGFβ-treated fibroblasts was examined. […] Similarly, both remodilins 39 and 83 inhibited HIF1α accumulation in HEK293 cells exposed to 6 hrs of hypoxia (1% O2; FIG. 12B). […] N—normoxia; H—hypoxia.

AKT = assay: TGFβ-induced AKT phosphorylation in fibroblasts; assay type: cell-based; details: human fibroblasts
Excerpt: as §5, §6

ERK1/2 = assay: TGFβ-induced ERK1/2 phosphorylation in fibroblasts; assay type: cell-based; details: human fibroblasts
Excerpt: as §5, §6

HIF1α [11] = assay: Hypoxia-induced HIF1α accumulation in HEK293 cells; assay type: cell-based; details: 6 hrs steady hypoxia (1% oxygen); 3 μM or 10 µM
Excerpt: as §5, §6

HIF1α [12] = assay: Hypoxia-induced HIF1α accumulation in HEK293T cells (Western blot); assay type: cell-based; details: 6 hrs steady hypoxia; 3 or 10 μM
Excerpt: FIG. 14A-14B Remodilins' effects on hypoxia-induced accumulation of HIF1α. […] FIG. 14B HIF1α was absent in cells ex-posed to 6 hrs normoxia (N).
OSA is a chronic, morbid disease affecting about 10% of the adult population, in which frequent episodes of upper airway collapse obstruct inspiratory airflow and cause IH. These episodes of IH disrupt sleep but perhaps more importantly accelerate multiple cardiometabolic abnormalities, including systemic hypertension, cardiovascular disease, stroke, and abnormal glucose metabolism. Therefore, remodilins were examined for their ability on inhibit hypoxia-induced accumulation of HIF1α, a transcription factor that mediates many of the adverse responses to IH.

[13] = test system: A549 lung adenocarcinoma cells; assay: Oxygen consumption rate and extracellular acidification rate; assay type: cell-based; details: treated at time=30 min
Method: FIG. 13A-13B Effect of remodilin 83 on oxygen consumption rate (OCR) and extracellular acidification rate (ECAR). FIG. 13A A549 cells were treated with remodilin 83 (open circles) or its vehicle (filled circles) at time=30 min, and oxygen consumption rate (OCR) was continuously measured over time. FIG. 13B A549 cells were treated with remodilin 83 (open circles) or its vehicle (filled circles) at time=30 min, and extracellular acidification rate (ECAR) was measured continuously over time. Cells were sequentially treated with oligomycin (ATP synthase inhibitor), FCCP (uncoupler) and antimycin A/rotenone (A+R) (complex III and I inhibitor).
A549 cells were treated with remodilin 83 (open circles) or its vehicle (filled circles) at time=30 min, and oxygen consumption rate (OCR) and extracellular acidification rate (ECAR) were measured continuously over time. Cells were sequentially treated with oligomycin (ATP synthase inhibitor), FCCP (uncoupler) and antimycin A/rotenone (A+R) (complex III and I inhibitor).

Sprague Dawley rats = assay: Intermittent hypoxia (IH)-induced systemic hypertension; assay type: in vivo
Method: FIG. 15A-15B Remodilin's effect on hypertension and weight. […] N=2/group; DO-Day 0 (prior to IH), D11-Day 11.
Remodilins were tested for their ability to inhibit the systemic hypertension induced in rats subjected to IH in vivo.

CC1CN(S(=O)(=O)c2ccc(NC(=O)c3ccc(Br)c(I)c3)cc2)CCN1 (centres unmarked) [Remodilin 83, 4-Bromo-3-iodo-N-(4-((3-methylpiperazin-1-yl)sulfonyl)phenyl)benzamide]
TGFβ-stimulated transformation of human lung-derived fibroblasts to myofibroblast phenotype (ACTA2 or FN1 protein expression) [1]: blunt TGFβ-stimulated transformation
invasion of MDA-MB-231 cells from spheroids into collagen gels (MDA-MB-231 cells [2]): inhibited invasion
10% FBS-directed invasion migration of BM1 cells through Matrigel-coated transwell membrane [3]: inhibited
migration of confluent MDA-MB-231 cells into circular scratch wound (MDA-MB-231 cells [4]): inhibited migration
growth inhibition or cytotoxicity by Alamar blue assay (MDA-MB-231 cells [5]): Neither remodilin is growth-inhibitory or cytotoxic
bioavailability ([6]; po): 22%
AUC [6]: 1300 ng·h/mL
Cmax [6]: 0.38 µM
half-life [6]: 8.4 h
maintenance of tissue or plasma levels above 10 μM throughout the day ([7]; single oral doses): did not maintain tissue or plasma levels above 10 μM throughout the day
tissue distribution ([7]; single oral doses of 10 or 50 mg/kg (FIG. 6)): highly preferentially distributed to the lung
variation of tissue concentrations over the 12-hour dosing period, IP ([8]; after 14 d BID dosing, given IP): relatively steady within each tissue
variation of tissue concentrations over the 12-hour dosing period, PO ([8]; after 14 d BID dosing, given PO): greater variation over time
Brain levels ([8]; after 14 days BID dosing): low
concentration at 14 days ([8]; female, Balb/c, mouse, heart, kidney, 40 mg/kg BID IP, 14 days, read-out: levels in liver, heart, lung, and kidney): ~10 µM
mortality or gross clinical evidence of toxicity ([8]; mouse, in vivo): no mortality or gross clinical evidence of toxicity
concentration at 14 days ([8]; mouse, 14-day 40 mg/kg BID IP in 20% Solutol, female Balb/c mice, read-out: liver and lung concentrations): < 10 µM
lipophilicity / lipid solubility [9]: lipophilic; also recorded: highly lipid soluble
dissolution in 20% Solutol or DMSO ([9]; 20% Solutol or DMSO): readily dissolved
TGFβ-induced HIF1α accumulation in human fibroblasts (HIF1α [10]): this response was absent
TGFβ-induced AKT phosphorylation (AKT): inhibited TGFβ-induced AKT phosphorylation
TGFβ-induced ERK1/2 phosphorylation (ERK1/2): not TGFβ-induced ERK1/2 phosphorylation
HIF1α accumulation in HEK293 cells exposed to hypoxia (HIF1α [11]): blunted HIF1α accumulation substantially
HIF1α accumulation in HEK293T cells exposed to hypoxia (HIF1α [12]): inhibit the accumulation of HIF1α
extracellular acidification rate (ECAR), marker of glycolysis [13]: decreases both mitochondrial respiration and glycolysis
oxygen consumption rate (OCR), mitochondrial respiration [13]: decreases both mitochondrial respiration and glycolysis
systemic hypertension induced by 10 days of IH (8 hrs/day) (Sprague Dawley rats; 20 mg/kg BID IP, N=2/group): blocks the systemic hypertension
health as judged by clinical observation or weight gain (Sprague Dawley rats; D0 to D11): no obvious effect on health
blood pressure in rats unexposed to IH (Sprague Dawley rats; N=2/group): little effect on blood pressure
